The record followed here is PubChem BioAssay AID652 (University of Pittsburgh Molecular Library Screening Center, 2007).

Molecules are shown by their SMILES.

The first test deals with Gag-Pol polyprotein (Human immunodeficiency virus type 1 group M subtype B (isolate HXB2)) (UniProt P04585). The experiment in a line: concentration-response of HIV-1 RNase H blockers – biochemical, probe assessment, dose response (AID 652). Conditions: HIV-1 RT RNase H enzymatic assay.
In the case of `O=C(COc1ccc(Cl)cc1)Nc1nnc(-c2ccc3c(c2)CCCC3)o1`, the IC50 is 4.49 µM.

Still in this test, the particulars now being: HIV-1 RT RNase H enzymatic assay, inhibition, at 50 µM, stronger effect = higher value.
In turn, `O=C(COc1ccc(Cl)cc1)Nc1nnc(-c2ccc3c(c2)CCCC3)o1` displayed an inhibition of 83.7%.
As to `Cc1cccc(N2CSC3=C(C#N)C(c4ccc(C)o4)CC(=O)N3C2)c1` (stereo not drawn), the inhibition came to 100%.
Still for that read-out and setting: next, `C=CCNC(=O)c1c(N)n(-c2ccc3c(c2)OCO3)c2nc3ccccc3nc12`: 55.2%; `O=C(NCc1ccco1)c1cc2cc3ccc(Cl)cc3nc2o1`: 91.6%.
Still for that read-out and setting: next, `COc1ccccc1-c1nnc2n1N=C(c1ccc(O)c(O)c1)CS2`: 97%; `COc1cc(OC)c(C2CC(=O)N3CN(C)CSC3=C2C#N)cc1OC` (stereo not drawn): 76.1%.
Same read-out and setting: the same measure for `CCC1CCCCN1S(=O)(=O)c1ccc(S(=O)(=O)N2CCN(S(=O)(=O)CC)CC2)cc1` (stereo not drawn): 93%.
